Values joined by “and” are separate entries in the source; they are usually repeats but may differ in a detail not shown here. Equal values may be shown once.
Target: SARS-CoV-2 3CL^pro C145G (Severe acute respiratory syndrome coronavirus 2, UniProt P0DTD1, C3408G)
Format: binding

SMILES | -TΔS
CC(C)(C)[C@H](NS(=O)(=O)C1CC1)C(=O)N1CC2(C[C@H]1C(=O)N[C@H](C#N)C[C@@H]1CCNC1=O)SCCS2 [compound 12] | -1.19 ± 0.325 kcal/mol and -1.19 kcal/mol
CC(C)(C)NC(=O)N[C@H](C(=O)N1C[C@H]2[C@@H]([C@H]1C(=O)N[C@H](C#N)C[C@@H]1CCNC1=O)C2(C)C)C(C)(C)C [compound 2] | -5.978 ± 0.1 kcal/mol and -5.978 kcal/mol
CC(C)(C)[C@H](NS(C)(=O)=O)C(=O)N1CC2(C[C@H]1C(=O)N[C@H](C#N)C[C@@H]1CCNC1=O)SCCS2 [compound 11] | -3.559 ± 0.332 kcal/mol and -3.559 kcal/mol
CC(C)(C)[C@H](NC(=O)C1(F)CC1)C(=O)N1CC2(C[C@H]1C(=O)N[C@H](C#N)C[C@@H]1CCNC1=O)SCCS2 [compound 10] | -2.18 ± 0.562 kcal/mol and -2.18 kcal/mol
CC(C)(C)NC(=O)N[C@H](C(=O)N1CC2(C[C@H]1C(=O)N[C@H](C#N)C[C@@H]1CCNC1=O)SCCS2)C(C)(C)C [compound 7] | -4.818 ± 0.268 kcal/mol and -4.818 kcal/mol

From PMC10575921 (Nature Communications, 2023)
